For 21 molecules, IC50 results are on record in patent US20260132132A1, “3A,4,5,6-TETRAHYDRO-1 H-PYRAZOLO[3,4-C]PYRIDIN-7(7AH)-ONE DERIVATIVES AS FACTOR XIIA INHIBITORS” (KALVISTA PHARMACEUTICALS LIMITED, priority 2022, published 2026).

One experiment has as its target FXa (Homo sapiens, UniProt P00742). Description: Related protease inhibition: FXa, fluorogenic substrate. Type of experiment: biochemical. The conditions noted are these: fluorogenic substrate at Km, 25° C.; H1-H3 = % activity at 40 μM. The method, then:
Human serine protease enzyme Plasma Kallikrein, KLK1, FXa, Plasmin, Thrombin and Trypsin were assayed for enzymatic activity using an appropriate fluorogenic substrate at Km concentration, FXIa at fixed substrate concentration of 100 μM and various concentrations of the test compound.

The target of experiment [1] is T1, Human Factor XIIa (hFXIIa) (Homo sapiens, UniProt P00748).
T1 construct: purchased Enzyme Research Laboratories
T1 sequence (P00748 373-615 limits assumed): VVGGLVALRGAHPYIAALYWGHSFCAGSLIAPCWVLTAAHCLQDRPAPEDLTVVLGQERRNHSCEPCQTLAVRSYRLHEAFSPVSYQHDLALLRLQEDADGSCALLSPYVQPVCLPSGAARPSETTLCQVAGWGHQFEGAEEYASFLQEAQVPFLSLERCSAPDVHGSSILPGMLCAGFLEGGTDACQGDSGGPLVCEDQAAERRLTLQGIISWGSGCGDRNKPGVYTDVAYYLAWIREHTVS
T1 sequence (P00748 20-372 partner limits assumed): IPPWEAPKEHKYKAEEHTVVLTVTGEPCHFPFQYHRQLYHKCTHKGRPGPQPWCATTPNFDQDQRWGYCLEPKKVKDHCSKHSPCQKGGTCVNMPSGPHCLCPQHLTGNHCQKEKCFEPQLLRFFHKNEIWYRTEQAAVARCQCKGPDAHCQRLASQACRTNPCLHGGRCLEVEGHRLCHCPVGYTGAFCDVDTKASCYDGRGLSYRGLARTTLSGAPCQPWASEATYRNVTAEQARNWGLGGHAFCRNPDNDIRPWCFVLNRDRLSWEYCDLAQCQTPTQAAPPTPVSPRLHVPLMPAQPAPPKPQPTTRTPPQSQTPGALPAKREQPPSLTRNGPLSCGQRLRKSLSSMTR
As to the kind of experiment: Determination of Human Factor XIIa (hFXIIa) inhibition, fluorogenic substrate IC50 assay. The experiment is classed as biochemical. The note with it: fluorogenic substrate H-DPro-Phe-Arg-AFC at Km, 25° C., read-out: Human FXIIa IC50. The method, then:
Determination of Human Factor XIIa (hFXIIa) inhibition
The Km for the cleavage of the substrate by hFXIIa was determined by standard transformation of the Michaelis-Menten equation, with subsequent inhibition assays performed at substrate Km concentration.

Sequence of FXa (P00742 235-488 limits assumed): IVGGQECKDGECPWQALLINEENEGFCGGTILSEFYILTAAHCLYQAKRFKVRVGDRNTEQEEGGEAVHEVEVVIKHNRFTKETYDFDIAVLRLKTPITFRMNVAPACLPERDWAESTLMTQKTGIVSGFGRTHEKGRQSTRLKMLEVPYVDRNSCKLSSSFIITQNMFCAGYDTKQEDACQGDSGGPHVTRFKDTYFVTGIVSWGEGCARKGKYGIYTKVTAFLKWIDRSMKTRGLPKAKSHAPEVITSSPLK
Sequence of FXa (P00742 41-179 partner limits assumed): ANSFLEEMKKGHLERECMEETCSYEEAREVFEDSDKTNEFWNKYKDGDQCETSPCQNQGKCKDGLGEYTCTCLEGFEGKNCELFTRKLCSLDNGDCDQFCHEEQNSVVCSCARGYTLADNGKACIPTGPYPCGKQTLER

As a reminder, the IC50 is the concentration that gives 50% inhibition. As to `O=C(NCc1ccccc1)c1nn(-c2cccc(Cl)c2)c2c1CCN(c1cccc(CN3CCCCC3)c1)C2=O` [Example 1001, N-Benzyl-1-(3-chlorophenyl)-7-oxo-6-(3-(piperidin-1-ylmethyl)phenyl)-4,5,6,7-tetrahydro-1H-pyrazolo[3,4-c]pyridine-3-carboxamide], the half-inhibitory concentration (IC50) is over 40 µM on FXa and 100 to 300 nM in experiment [1].
Turning to `O=C(NCC1CC1)c1nn(-c2cccc(Cl)c2)c2c1CCN(c1cccc(CN3CCCCC3)c1)C2=O` [Example 1002, 1-(3-chlorophenyl)-N-(cyclopropylmethyl)-7-oxo-6-(3-(piperidin-1-ylmethyl)phenyl)-4,5,6,7-tetrahydro-1H-pyrazolo[3,4-c]pyridine-3-carboxamide], the IC50 at FXa was over 10 µM; in experiment [1], 300 to 1000 nM.
Take `O=C(NCc1cccnc1)c1nn(-c2cccc(Cl)c2)c2c1CCN(c1cccc(CN3CCCCC3)c1)C2=O` [Example 1003, 1-(3-chlorophenyl)-7-oxo-6-(3-(piperidin-1-ylmethyl)phenyl)-N-(pyridin-3-ylmethyl)-4,5,6,7-tetrahydro-1H-pyrazolo[3,4-c]pyridine-3-carboxamide]: the figures for the IC50 (at FXa; in experiment [1]) were over 100 µM and 300 to 1000 nM, respectively.
Take `CN(Cc1ccccc1)C(=O)c1nn(-c2cccc(Cl)c2)c2c1CCN(c1cccc(CN3CCCCC3)c1)C2=O` [Example 1004, N-benzyl-1-(3-chlorophenyl)-N-methyl-7-oxo-6-(3-(piperidin-1-ylmethyl)phenyl)-4,5,6,7-tetrahydro-1H-pyrazolo[3,4-c]pyridine-3-carboxamide]: the half-maximal inhibitory concentration (IC50) is over 40 µM against FXa and 1000 to 3000 nM in experiment [1].
The corresponding values for `CN1CCc2ccc(N3CCc4c(C(=O)NCc5ccccc5)nn(-c5cccc(Cl)c5)c4C3=O)cc2C1` [Example 1005, N-benzyl-1-(3-chlorophenyl)-6-(2-methyl-1,2,3,4-tetrahydroisoquinolin-7-yl)-7-oxo-4,5,6,7-tetrahydro-1H-pyrazolo[3,4-c]pyridine-3-carboxamide] are 3 to 10 µM and 10 to 100 nM.
For the molecule `O=C(OCc1ccccc1)c1nn(-c2cccc(Cl)c2)c2c1CCN(c1cccc(CN3CCCCC3)c1)C2=O` [Example 1006, benzyl 1-(3-chlorophenyl)-7-oxo-6-(3-(piperidin-1-ylmethyl)phenyl)-4,5,6,7-tetrahydro-1H-pyrazolo[3,4-c]pyridine-3-carboxylate], the results for the IC50 (on FXa; in experiment [1]) were 10 to 40 µM and 300 to 1000 nM, respectively.
Consider `CCOC(=O)c1nn(-c2cccc(Cl)c2)c2c1CCN(c1cccc(CN3CCCCC3)c1)C2=O` [Example 1007, ethyl 1-(3-chlorophenyl)-7-oxo-6-(3-(piperidin-1-ylmethyl)phenyl)-4,5,6,7-tetrahydro-1H-pyrazolo[3,4-c]pyridine-3-carboxylate], for which the figures for the IC50 (against FXa; in experiment [1]) were 10 to 40 µM and 100 to 300 nM, respectively.
On to `O=C(N[C@H](CO)c1ccccc1)c1nn(-c2cccc(Cl)c2)c2c1CCN(c1cccc(CN3CCCCC3)c1)C2=O` [Example 1008, (S)-1-(3-chlorophenyl)-N-(2-hydroxy-1-phenylethyl)-7-oxo-6-(3-(piperidin-1-ylmethyl)phenyl)-4,5,6,7-tetrahydro-1H-pyrazolo[3,4-c]pyridine-3-carboxamide], for which the IC50 against FXa is over 100 µM; in experiment [1], 300 to 1000 nM.
On the same counts, the results for `O=C(c1nn(-c2cccc(Cl)c2)c2c1CCN(c1cccc(CN3CCCCC3)c1)C2=O)N1CCCC1` [Example 1009, 1-(3-chlorophenyl)-6-(3-(piperidin-1-ylmethyl)phenyl)-3-(pyrrolidine-1-carbonyl)-1,4,5,6-tetrahydro-7H-pyrazolo[3,4-c]pyridin-7-one] are over 100 µM and 3000 to 10000 nM.
Turning to `O=C(NC1CCCCC1)c1nn(-c2cccc(Cl)c2)c2c1CCN(c1cccc(CN3CCCCC3)c1)C2=O` [Example 1010, 1-(3-chlorophenyl)-N-cyclohexyl-7-oxo-6-(3-(piperidin-1-ylmethyl)phenyl)-4,5,6,7-tetrahydro-1H-pyrazolo[3,4-c]pyridine-3-carboxamide], the IC50 on FXa was over 100 µM; in experiment [1], 300 to 1000 nM.
In the case of `CCNC(=O)c1nn(-c2cccc(Cl)c2)c2c1CCN(c1cccc(CN3CCCCC3)c1)C2=O` [Example 1011, 1-(3-chlorophenyl)-N-ethyl-7-oxo-6-(3-(piperidin-1-ylmethyl)phenyl)-4,5,6,7-tetrahydro-1H-pyrazolo[3,4-c]pyridine-3-carboxamide], the IC50 at FXa is over 100 µM; in experiment [1], 3000 to 10000 nM.
Turning to `CN1CCc2ccc(N3CCc4c(C(=O)NCC5CC5)nn(-c5cccc(Cl)c5)c4C3=O)cc2C1` [Example 1012, 1-(3-chlorophenyl)-N-(cyclopropylmethyl)-6-(2-methyl-1,2,3,4-tetrahydroisoquinolin-7-yl)-7-oxo-4,5,6,7-tetrahydro-1H-pyrazolo[3,4-c]pyridine-3-carboxamide], the IC50 on FXa is 10 to 40 µM; in experiment [1] it was 300 to 1000 nM.
On the same counts, the results for `CCOC(=O)c1nn(-c2cccc(Cl)c2)c2c1CCN(c1ccc3c(c1)CN(C)CC3)C2=O` [Example 1013, ethyl 1-(3-chlorophenyl)-6-(2-methyl-1,2,3,4-tetrahydroisoquinolin-7-yl)-7-oxo-4,5,6,7-tetrahydro-1H-pyrazolo[3,4-c]pyridine-3-carboxylate] are 0.3 to 1 µM and 100 to 300 nM.
Consider `CCNC(=O)c1nn(-c2cccc(Cl)c2)c2c1CCN(c1ccc3c(c1)CN(C)CC3)C2=O` [Example 1014, 1-(3-chlorophenyl)-N-ethyl-6-(2-methyl-1,2,3,4-tetrahydroisoquinolin-7-yl)-7-oxo-4,5,6,7-tetrahydro-1H-pyrazolo[3,4-c]pyridine-3-carboxamide], for which the concentration for half-maximal inhibition (IC50) against FXa was in the range of 10 to 40 µM; in experiment [1] it was 300 to 1000 nM.
On to `CCNC(=O)c1nn(-c2cnc(N)c(Cl)c2)c2c1CCN(c1ccc3c(c1)C(=O)N(C)CC3)C2=O` [Example 2031, 1-(6-amino-5-chloropyridin-3-yl)-N-ethyl-6-(2-methyl-1-oxo-1,2,3,4-tetrahydroisoquinolin-7-yl)-7-oxo-4,5,6,7-tetrahydro-1H-pyrazolo[3,4-c]pyridine-3-carboxamide], for which the IC50 in experiment [1] was over 4000 nM.
Take `CCNC(=O)c1nn(-c2ccc(C)cc2F)c2c1CCN(c1ccc3c(c1)C(=O)N(C)CC3)C2=O` [Example 2034, N-ethyl-1-(2-fluoro-4-methylphenyl)-6-(2-methyl-1-oxo-1,2,3,4-tetrahydroisoquinolin-7-yl)-7-oxo-4,5,6,7-tetrahydro-1H-pyrazolo[3,4-c]pyridine-3-carboxamide]: in experiment [1], the IC50 lay within 10000 to 40000 nM.
Same read-out and setting: under `CN1CCc2ccc(-n3cnc4c(C#N)nn(-c5cccc(Cl)c5)c4c3=O)cc2C1` [Example 3001, 1-(3-chlorophenyl)-6-(2-methyl-1,2,3,4-tetrahydroisoquinolin-7-yl)-7-oxo-6,7-dihydro-1H-pyrazolo[4,3-d]pyrimidine-3-carbonitrile] stands 300 to 1000 nM; under `Cc1nc2c(C#N)nn(-c3cccc(Cl)c3)c2c(=O)n1-c1ccc2c(c1)CN(C)CC2` [Example 3002, 1-(3-Chlorophenyl)-5-methyl-6-(2-methyl-1,2,3,4-tetrahydroisoquinolin-7-yl)-7-oxo-6,7-dihydro-1H-pyrazolo[4,3-d]pyrimidine-3-carbonitrile], 100 to 300 nM; under `Cc1nc2c(C(=O)NCC3CC3)nn(-c3cccc(Cl)c3F)c2c(=O)n1-c1ccc2c(c1)C(=O)N(C)CCO2` [Example 3023, 1-(3-chloro-2-fluorophenyl)-N-(cyclopropylmethyl)-5-methyl-6-(4-methyl-5-oxo-2,3,4,5-tetrahydrobenzo[f][1,4]oxazepin-7-yl)-7-oxo-6,7-dihydro-1H-pyrazolo[4,3-d]pyrimidine-3-carboxamide], 300 to 1000 nM.
As for `Cc1ccncc1CNC(=O)n1nc(-c2cccc(Cl)c2)c2c1CCN(c1ccc3c(c1)CN(CCO)CC3)C2=O` [Example 4003, 3-(3-chlorophenyl)-5-(2-(2-hydroxyethyl)-1,2,3,4-tetrahydroisoquinolin-7-yl)-N-((4-methylpyridin-3-yl)methyl)-4-oxo-4,5,6,7-tetrahydro-1H-pyrazolo[4,3-c]pyridine-1-carboxamide], the IC50 in experiment [1] lay in the range of 100 to 300 nM.
As for `O=C(Cn1nc(-c2cccc(Cl)c2)c2c1CCN(c1ccc3c(c1)CN(CCO)CC3)C2=O)NC1CC1` [Example 4004, 2-(3-(3-chlorophenyl)-5-(2-(2-hydroxyethyl)-1,2,3,4-tetrahydroisoquinolin-7-yl)-4-oxo-4,5,6,7-tetrahydro-1H-pyrazolo[4,3-c]pyridin-1-yl)-N-cyclopropylacetamide], the IC50 in experiment [1] lay within 1000 to 3000 nM.
